Data published in patent publication US20240239752A1, “BICYCLIC HETEROAROMATIC INHIBITORS OF KLK5” (BioCryst Pharmaceuticals, Inc., priority 2021, published 2024).

Biological target: T1, recombinant human KLK5 (Homo sapiens, UniProt Q9Y337)
T1 construct: purchased Novoprotein or R&D Systems C415 or 1108-SE
T1 sequence (Q9Y337 23-293): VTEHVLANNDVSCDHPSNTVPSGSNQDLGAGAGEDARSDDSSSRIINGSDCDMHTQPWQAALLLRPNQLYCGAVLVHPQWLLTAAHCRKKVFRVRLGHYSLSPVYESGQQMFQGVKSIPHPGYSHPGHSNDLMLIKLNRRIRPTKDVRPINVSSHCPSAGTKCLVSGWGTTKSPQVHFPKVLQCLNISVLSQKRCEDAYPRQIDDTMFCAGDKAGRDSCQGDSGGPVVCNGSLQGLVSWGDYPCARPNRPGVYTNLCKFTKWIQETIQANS
Experiment: Kallikrein (KLK) 5 enzymatic assay (Boc-VPR-AMC fluorogenic substrate)
Assay type: biochemical
Settings: recombinant human KLK5 0.1 μg/well, Boc-VPR-AMC 100 μM, pH 7.5, room temperature, 1% DMSO; tested a minimum of three times
From the text: Kallikrein-5 (KLK5) is a member of the serine protease family of proteolytic enzymes, confirmed to have trypsin-like activity (Michael I P, et al. Biochemical and enzymatic characterization of human kallikrein 5 (hK5), a novel serine protease potentially involved in cancer progression (J. Biol. Chem. 2005 Apr. 15; 280 (15): 14628-35). Boc-VPR-AMC is a fluorogenic peptide substrate composed of the short peptide chain, Valine-Proline-Arginine (VPR) and the fluorophore, 7-amino-4-methylcoumarin (AMC). KLK5 is able to cleave the fluorogenic peptide substrate Boc-VPR-AMC, releasing the AMC fluorophore, which causes a fluorescent emission in proportion with the enzymatic activity of KLK5. The KLK5 enzymatic activity is monitored by measuring fluorescent emission at wavelengths of 380 nm (excitation) and 460 nm (emission).
The IC50 value of compounds against KLK5 (i.e., the concentration of the compound that inhibits 50% of the enzymatic activity) was calculated according to the procedure reported by R&D systems (Recombinant human KLK5, Catalog Number: 1108-SE), with the exception the pH of the assay was modified from 8.0 to 7.5. Specifically, recombinant human KLK5 (Novoprotein Catalog #C415 or R&D systems Catalog #1108-SE) and fluorogenic peptide Boc-VPR-AMC substrate (R&D Catalog #ES011) were each separately diluted in assay buffer (0.1 M NaH2PO4 buffer, pH 7.5). The compounds of the disclosure were dissolved in DMSO at a concentration of 10 mM. A portion of this stock solution was added to the recombinant human KLK5 solution to provide a desired concentration of the compounds and the mixture was incubated at room temperature. The reaction was initiated by the addition of the fluorogenic peptide substrate at room temperature. The final concentration of recombinant human KLK5 was 0.1 μg/well and the final concentration of the fluorogenic substrate was 100 μM (final volume of 100 μL, 1% DMSO). The assays were performed in 96 well F16 Black Maxisorp Plate (Nunc Catalog #475515). Controls included assay buffer alone and enzyme solutions to which DMSO was added. The reaction rates were measured spectrophotometrically by excitation at 380 nm and emission at 460 nm on a Biotek Synergy H1 plate reader.
The reaction rate for enzyme alone was compared to the reaction rate of enzyme in the presence of compound and the percent inhibition was calculated as shown below:
Percent Inhibition=[Rate with inhibitor/Rate without inhibitor)]×100
An IC50 indicates a compound concentration that inhibits 50% of the enzymatic activity. Compounds were tested a minimum of three times.

Question: `Nc1nccc2c(-c3ccc4c(c3)c(CCc3ccccc3CC(=O)O)cn4C3CCOC3)cccc12` (stereo not drawn) [Compound 302b, 2-(2-(2-(5-(1-aminoisoquinolin-5-yl)-1-(tetrahydrofuran-3-yl)-1H-indol-3-yl)ethyl)phenyl)acetic acid] was tested. Which IC50 did it give?
Answer: The IC50 was < 1000 nM.

Question: For `Nc1nccc2ccc(-c3ccc4c(c3)c(COc3ccccc3CC(=O)O)nn4[C@H]3CCOC3)cc12` [Compound 244b, (S)-2-(2-((5-(1-aminoisoquinolin-7-yl)-1-(tetrahydrofuran-3-yl)-1H-indazol-3-yl)methoxy)phenyl)acetic acid], which IC50 is on record?
Answer: Its IC50 is < 1000 nM.

Question: Which IC50 does the source give for `COc1cc(-c2ccc3ccnc(N)c3c2)cc2c(COc3ccccc3CC(=O)O)coc12` [Compound 229f, 2-(2-((5-(1-aminoisoquinolin-7-yl)-7-methoxybenzofuran-3-yl)methoxy)phenyl)acetic acid] here?
Answer: The IC50 was 1000 to 10000 nM.

Question: Which IC50 does the source give for `CCOC(=O)Cc1ccccc1OCc1nn(CCF)c2ccc(Br)cc12` [Compound 182c, ethyl 2-(2-((5-bromo-1-(2-fluoroethyl)-1H-indazol-3-yl)methoxy)phenyl)acetate] here?
Answer: The IC50 was < 1000 nM.

Question: How did the IC50 turn out when `N#Cc1ccc(CC(=O)O)c(O[C@@H]2CCc3ccc(-c4cccc5c(N)nccc45)cc32)c1` [Compound 424b, (R)-2-(2-((6-(1-aminoisoquinolin-5-yl)-2,3-dihydro-1H-inden-1-yl)oxy)-4-cyanophenyl)acetic acid] was run?
Answer: The IC50 was < 1000 nM.

Question: `CCOC(=O)N1CC(n2nc3ccc(-c4ccc5ccnc(N)c5c4)cc3c2COc2ccccc2CC(=O)O)C1` [Compound 127b, 2-(2-((5-(1-aminoisoquinolin-7-yl)-2-(1-(ethoxycarbonyl)azetidin-3-yl)-2H-indazol-3-yl)methoxy)phenyl)acetic acid] was tested. Which IC50 did it give?
Answer: The IC50 was 1000 to 10000 nM.

Question: With `CCS(=O)(=O)N1CC(n2nc3ccc(-c4cccc5c(N)nccc45)cc3c2COc2ccccc2CC(=O)O)C1` [Compound 130c, 2-(2-((5-(1-aminoisoquinolin-5-yl)-2-(1-(ethylsulfonyl)azetidin-3-yl)-2H-indazol-3-yl)methoxy)phenyl)acetic acid] as the molecule, how does the IC50 read?
Answer: The IC50 was < 1000 nM.

Question: How did the IC50 turn out when `COc1cc(-c2ccc3ccnc(N)c3c2)cc2c(COc3cc(C)ccc3CC(=O)O)coc12` [Compound 230d, 2-(2-((5-(1-aminoisoquinolin-7-yl)-7-methoxybenzofuran-3-yl)methoxy)-4-methylphenyl)acetic acid] was run?
Answer: The IC50 was 1000 to 10000 nM.

Question: Which IC50 does the source give for `Cc1ccc(OCc2c3cc(-c4cccc5c(N)nccc45)ccc3nn2C2CCC2)c(CC(=O)O)c1` [Compound 156b, 2-(2-((5-(1-aminoisoquinolin-5-yl)-2-cyclobutyl-2H-indazol-3-yl)methoxy)-5-methylphenyl)acetic acid] here?
Answer: The IC50 was 1000 to 10000 nM.

Question: How did the IC50 turn out when `CC(C)n1nc(COc2ccccc2CC(=O)O)c2cc(-c3cccc(C(=N)N)c3F)ccc21` [Compound 64d, 2-(2-((5-(3-carbamimidoyl-2-fluorophenyl)-1-isopropyl-1H-indazol-3-yl)methoxy)phenyl)acetic acid] was run?
Answer: Its IC50 is < 1000 nM.

Question: With `N#Cc1cccc(CC(=O)O)c1O[C@@H]1CCc2ccc(-c3ccc4ccnc(N)c4c3)cc21` [Compound 429d, (R)-2-(2-((6-(1-aminoisoquinolin-7-yl)-2,3-dihydro-1H-inden-1-yl)oxy)-3-cyanophenyl)acetic acid] as the molecule, how does the IC50 read?
Answer: The IC50 was 1000 to 10000 nM.

Question: How did the IC50 turn out when `CC(C)CCN1CC(Cn2nc(COc3ccccc3CC(=O)O)c3cc(-c4ccc5ccnc(N)c5c4)ccc32)C1` [Compound 307c, 2-(2-((5-(1-aminoisoquinolin-7-yl)-1-((1-isopentylazetidin-3-yl)methyl)-1H-indazol-3-yl)methoxy)phenyl)acetic acid] was run?
Answer: The IC50 was < 1000 nM.

Question: `Nc1nccc2c(-c3ccc4c(c3)C(Oc3ccccc3CC(=O)O)CC43CCCC3)cccc12` (stereo not drawn) [Compound 354f, 2-(2-((5′-(1-aminoisoquinolin-5-yl)-2′,3′-dihydrospiro[cyclopentane-1,1′-inden]-3′-yl)oxy)phenyl)acetic acid] was tested. Which IC50 did it give?
Answer: Its IC50 is < 1000 nM.

Question: `CC(C)CCN1CCC(n2nc3ccc(-c4ccc5ccnc(N)c5c4)cc3c2COc2ccccc2CC(=O)O)CC1` [Compound 131h, 2-(2-((5-(1-aminoisoquinolin-7-yl)-2-(1-isopentylpiperidin-4-yl)-2H-indazol-3-yl)methoxy)phenyl)acetic acid] was tested. Which IC50 did it give?
Answer: The IC50 was < 1000 nM.

Question: With `COc1ccc(CC(=O)O)c(OCc2nn(C)c3ccc(-c4cccc(C(=N)N)c4)cc23)c1` [Compound 101b, 2-(2-((5-(3-carbamimidoylphenyl)-1-methyl-1H-indazol-3-yl)methoxy)-4-methoxyphenyl)acetic acid] as the molecule, how does the IC50 read?
Answer: The IC50 was < 1000 nM.

Question: How did the IC50 turn out when `CC(C)(C)OC(=O)N1CCC(n2nc(COc3ccccc3CC(=O)O)c3cc(-c4ccc5ccnc(N)c5c4)ccc32)C1` (stereo not drawn) [Compound 87c, 2-(2-((5-(1-aminoisoquinolin-7-yl)-1-(1-(tert-butoxycarbonyl)pyrrolidin-3-yl)-1H-indazol-3-yl)methoxy)phenyl)acetic acid] was run?
Answer: Its IC50 is < 1000 nM.

Question: `CCOC(=O)N1CC[C@H](n2nc(COc3ccccc3CC(=O)O)c3cc(-c4ccc5ccnc(N)c5c4)ccc32)C1` [Compound 346b, (S)-2-(2-((5-(1-aminoisoquinolin-7-yl)-1-(1-(ethoxycarbonyl)pyrrolidin-3-yl)-1H-indazol-3-yl)methoxy)phenyl)acetic acid] was tested. Which IC50 did it give?
Answer: Its IC50 is < 1000 nM.

Question: How did the IC50 turn out when `Cn1nc(COc2ccccc2CC(=O)O)c2cc(-c3cccc4c(N)nccc34)ccc21` [Compound 58b, 2-(2-((5-(1-aminoisoquinolin-5-yl)-1-methyl-1H-indazol-3-yl)methoxy)phenyl)acetic acid] was run?
Answer: Its IC50 is < 1000 nM.

Question: How did the IC50 turn out when `COc1c(C(=N)N)cccc1-c1ccc2c(c1)c(COc1ccccc1CC(=O)O)nn2CC1CCC1` [Compound 255d, 2-(2-((5-(3-carbamimidoyl-2-methoxyphenyl)-1-(cyclobutylmethyl)-1H-indazol-3-yl)methoxy)phenyl)acetic acid] was run?
Answer: The IC50 was < 1000 nM.

Question: Which IC50 does the source give for `Nc1nccc2c(-c3cc(C4CC4)c4c(c3)C(Oc3ccccc3CC(=O)O)CC4)cccc12` (stereo not drawn) [Compound 257b, 2-(2-((6-(1-aminoisoquinolin-5-yl)-4-cyclopropyl-2,3-dihydro-1H-inden-1-yl)oxy)phenyl)acetic acid] here?
Answer: The IC50 was < 1000 nM.

Question: How did the IC50 turn out when `Nc1nccc2ccc(-c3ccc4nn(C5CN(CCO)C5)c(COc5ccccc5CC(=O)O)c4c3)cc12` [Compound 119h, 2-(2-((5-(1-aminoisoquinolin-7-yl)-2-(1-(2-hydroxyethyl)azetidin-3-yl)-2H-indazol-3-yl)methoxy)phenyl)acetic acid] was run?
Answer: The IC50 was 1000 to 10000 nM.

Question: With `CC(C)(C)OC(=O)N1CCC2(CC1)C[C@@H](Oc1ccccc1CC(=O)O)c1cc(-c3ccc4ccnc(N)c4c3)ccc12` [Compound 395b, (R)-2-(2-((5-(1-aminoisoquinolin-7-yl)-1′-(tert-butoxycarbonyl)-2,3-dihydrospiro[indene-1,4′-piperidin]-3-yl)oxy)phenyl)acetic acid] as the molecule, how does the IC50 read?
Answer: Its IC50 is < 1000 nM.

Question: With `COc1cc2nn(C3CCC3)c(COc3ccccc3CC(=O)O)c2cc1-c1cccc(C(=N)N)c1` [Compound 271c, 2-(2-((5-(3-carbamimidoylphenyl)-2-cyclobutyl-6-methoxy-2H-indazol-3-yl)methoxy)phenyl)acetic acid] as the molecule, how does the IC50 read?
Answer: The IC50 was 1000 to 10000 nM.

Question: For `Nc1nccc2ccc(-c3ccc4c(c3)C(Oc3ccccc3CC(=O)O)CC43CCOCC3)cc12` (stereo not drawn) [Compound 350h, 2-(2-((5-(1-aminoisoquinolin-7-yl)-2,2′,3,3′,5′,6′-hexahydrospiro[indene-1,4′-pyran]-3-yl)oxy)phenyl)acetic acid], which IC50 is on record?
Answer: Its IC50 is < 1000 nM.
